Test results published in ChEMBL document CHEMBL1121997, “2-beta-D-Ribofuranosylthiazole-4-carboxamide, a novel potential antitumor agent for lung tumors and metastases” (1982).

Columns and labels:
Assay type in all cases: functional
[1] = system: Mus musculus; test: Average body weight in grams on day 5 minus average body weight on day 1 at the dose of 100 mg/kg in experiment 2
[2] = system: Mus musculus; test: Effect of compound on life span of mice inoculated intravenously with lewis lung carcinoma at the dose of 0.78 mg/kg in experiment 4; conditions: route intravenous
[3] = system: Mus musculus; test: Effect of compound on life span of mice inoculated intravenously with lewis lung carcinoma at the dose of 25 mg/kg in experiment 4; conditions: route intravenous
[4] = system: Mus musculus; test: Number of survivors out of 10 mice after 60 days infected with lewis lung carcinoma at the dose of 200 mg/kg in experiment 1
[5] = system: Mus musculus; test: Average body weight in grams on day 5 minus average body weight on day 1 at the dose of 400 mg/kg in experiment 3
[6] = system: Mus musculus; test: Average body weight in grams on day 5 minus average body weight on day 1 at the dose of 800 mg/kg in experiment 1
[7] = system: Mus musculus; test: Average body weight in grams on day 5 minus average body weight on day 1 at the dose of 50 mg/kg in experiment 2
[8] = system: Mus musculus; test: Average body weight in grams on day 5 minus average body weight on day 1 at the dose of 1.56 mg/kg in experiment 4
[9] = system: Mus musculus; test: Number of survivors out of 10 mice after 60 days infected with lewis lung carcinoma at the dose of 0.78 mg/kg in experiment 4
[10] = system: Mus musculus; test: Effect of compound on life span of mice inoculated intravenously with lewis lung carcinoma at the dose of 800 mg/kg in experiment 2; conditions: route intravenous
[11] = system: Mus musculus; test: Average body weight in grams on day 5 minus average body weight on day 1 at the dose of 6.25 mg/kg in experiment 4
[12] = system: Mus musculus; test: Number of survivors out of 10 mice after 60 days infected with lewis lung carcinoma at the dose of 800 mg/kg in experiment 1
[13] = system: Mus musculus; test: Number of survivors out of 10 mice after 60 days infected with lewis lung carcinoma at the dose of 100 mg/kg in experiment 2
[14] = system: Mus musculus; test: Number of survivors out of 10 mice after 60 days infected with lewis lung carcinoma at the dose of 25 mg/kg in experiment 1
[15] = system: Mus musculus; test: Average body weight in grams on day 5 minus average body weight on day 1 at the dose of 25 mg/kg in experiment 3
[16] = system: Mus musculus; test: Number of survivors out of 10 mice after 60 days infected with lewis lung carcinoma at the dose of 100 mg/kg in experiment 1
[17] = system: Mus musculus; test: Effect of compound on life span of mice inoculated intravenously with lewis lung carcinoma at the dose of 12.5 mg/kg in experiment 4; conditions: route intravenous
[18] = system: Mus musculus; test: Number of survivors out of 10 mice after 60 days infected with lewis lung carcinoma at the dose of 1.56 mg/kg in experiment 4
[19] = system: Mus musculus; test: Average body weight in grams on day 5 minus average body weight on day 1 at the dose of 50 mg/kg in experiment 3
[20] = system: Mus musculus; test: Average body weight in grams on day 5 minus average body weight on day 1 at the dose of 100 mg/kg in experiment 1
[21] = system: Mus musculus; test: Number of survivors out of 10 mice after 60 days infected with lewis lung carcinoma at the dose of 200 mg/kg in experiment 2
[22] = system: Mus musculus; test: Effect of compound on life span of mice inoculated intravenously with lewis lung carcinoma at the dose of 3.12 mg/kg in experiment 4; conditions: route intravenous
[23] = system: Mus musculus; test: Number of survivors out of 10 mice after 60 days infected with lewis lung carcinoma at the dose of 25 mg/kg in experiment 4
[24] = system: Mus musculus; test: Effect of compound on life span of mice inoculated intravenously with lewis lung carcinoma at the dose of 100 mg/kg in experiment 2; conditions: route intravenous
[25] = system: Mus musculus; test: Number of survivors out of 10 mice after 60 days infected with lewis lung carcinoma at the dose of 400 mg/kg in experiment 2
[26] = system: Mus musculus; test: Effect of compound on life span of mice inoculated intravenously with lewis lung carcinoma at the dose of 800 mg/kg in experiment 3; conditions: route intravenous
[27] = system: Mus musculus; test: Average body weight in grams on day 5 minus average body weight on day 1 at the dose of 400 mg/kg in experiment 2
[28] = system: Mus musculus; test: Number of survivors out of 10 mice after 60 days infected with lewis lung carcinoma at the dose of 50 mg/kg in experiment 3
[29] = system: Mus musculus; test: Effect of compound on life span of mice inoculated intravenously with lewis lung carcinoma at the dose of 50 mg/kg in experiment 3; conditions: route intravenous
[30] = system: Mus musculus; test: Average body weight in grams on day 5 minus average body weight on day 1 at the dose of 0.78 mg/kg in experiment 4
[31] = system: Mus musculus; test: Number of survivors out of 10 mice after 60 days infected with lewis lung carcinoma at the dose of 12.5 mg/kg in experiment 4
[32] = system: Mus musculus; test: Effect of compound on life span of mice inoculated intravenously with lewis lung carcinoma at the dose of 100 mg/kg in experiment 1; conditions: route intravenous
[33] = system: Mus musculus; test: Effect of compound on life span of mice inoculated intravenously with lewis lung carcinoma at the dose of 800 mg/kg in experiment 1; conditions: route intravenous
[34] = system: Mus musculus; test: Number of survivors out of 10 mice after 60 days infected with lewis lung carcinoma at the dose of 100 mg/kg in experiment 3
[35] = system: Mus musculus; test: Number of survivors out of 10 mice after 60 days infected with lewis lung carcinoma at the dose of 50 mg/kg in experiment 2
[36] = system: Mus musculus; test: Average body weight in grams on day 5 minus average body weight on day 1 at the dose of 200 mg/kg in experiment 1
[37] = system: Mus musculus; test: Effect of compound on life span of mice inoculated intravenously with lewis lung carcinoma at the dose of 50 mg/kg in experiment 2; conditions: route intravenous
[38] = system: Mus musculus; test: Effect of compound on life span of mice inoculated intravenously with lewis lung carcinoma at the dose of 25 mg/kg in experiment 3; conditions: route intravenous
[39] = system: Mus musculus; test: Average body weight in grams on day 5 minus average body weight on day 1 at the dose of 200 mg/kg in experiment 2
[40] = system: Mus musculus; test: Number of survivors out of 10 mice after 60 days infected with lewis lung carcinoma at the dose of 25 mg/kg in experiment 3
[41] = system: Mus musculus; test: Average body weight in grams on day 5 minus average body weight on day 1 at the dose of 25 mg/kg in experiment 1
[42] = system: Mus musculus; test: Average body weight in grams on day 5 minus average body weight on day 1 at the dose of 12.5 mg/kg in experiment 4
[43] = system: Mus musculus; test: Average body weight in grams on day 5 minus average body weight on day 1 at the dose of 3.12 mg/kg in experiment 4
[44] = system: Mus musculus; test: Number of survivors out of 10 mice after 60 days infected with lewis lung carcinoma at the dose of 200 mg/kg in experiment 3
[45] = system: Mus musculus; test: Average body weight in grams on day 5 minus average body weight on day 1 at the dose of 400 mg/kg in experiment 1
[46] = system: Mus musculus; test: Average body weight in grams on day 5 minus average body weight on day 1 at the dose of 200 mg/kg in experiment 3
[47] = system: Mus musculus; test: Average body weight in grams on day 5 minus average body weight on day 1 at the dose of 25 mg/kg in experiment 4
[48] = system: Mus musculus; test: Number of survivors out of 10 mice after 60 days infected with lewis lung carcinoma at the dose of 800 mg/kg in experiment 3
[49] = system: Mus musculus; test: Average body weight in grams on day 5 minus average body weight on day 1 at the dose of 25 mg/kg in experiment 2
[50] = system: Mus musculus; test: Effect of compound on life span of mice inoculated intravenously with lewis lung carcinoma at the dose of 400 mg/kg in experiment 1; conditions: route intravenous
[51] = system: Mus musculus; test: Average body weight in grams on day 5 minus average body weight on day 1 at the dose of 800 mg/kg in experiment 2
[52] = system: Mus musculus; test: Average body weight in grams on day 5 minus average body weight on day 1 at the dose of 50 mg/kg in experiment 1
[53] = system: Mus musculus; test: Number of survivors out of 10 mice after 60 days infected with lewis lung carcinoma at the dose of 6.25 mg/kg in experiment 4
[54] = system: Mus musculus; test: Average body weight in grams on day 5 minus average body weight on day 1 at the dose of 100 mg/kg in experiment 3
[55] = system: Mus musculus; test: Number of survivors out of 10 mice after 60 days infected with lewis lung carcinoma at the dose of 400 mg/kg in experiment 3
[56] = system: Mus musculus; test: Number of survivors out of 10 mice after 60 days infected with lewis lung carcinoma at the dose of 50 mg/kg in experiment 1
[57] = system: Mus musculus; test: Number of survivors out of 10 mice after 60 days infected with lewis lung carcinoma at the dose of 3.12 mg/kg in experiment 4
[58] = system: Mus musculus; test: Number of survivors out of 10 mice after 60 days infected with lewis lung carcinoma at the dose of 400 mg/kg in experiment 1
[59] = system: Mus musculus; test: Number of survivors out of 10 mice after 60 days infected with lewis lung carcinoma at the dose of 800 mg/kg in experiment 2
[60] = system: Mus musculus; test: Effect of compound on life span of mice inoculated intravenously with lewis lung carcinoma at the dose of 200 mg/kg in experiment 3; conditions: route intravenous
[61] = system: Mus musculus; test: Number of survivors out of 10 mice after 60 days infected with lewis lung carcinoma at the dose of 25 mg/kg in experiment 2
[62] = system: Mus musculus; test: Effect of compound on life span of mice inoculated intravenously with lewis lung carcinoma at the dose of 1.56 mg/kg in experiment 4; conditions: route intravenous
[63] = system: Mus musculus; test: Effect of compound on life span of mice inoculated intravenously with lewis lung carcinoma at the dose of 400 mg/kg in experiment 3; conditions: route intravenous
[64] = system: Mus musculus; test: Effect of compound on life span of mice inoculated intravenously with lewis lung carcinoma at the dose of 6.25 mg/kg in experiment 4; conditions: route intravenous
[65] = system: Mus musculus; test: Average body weight in grams on day 5 minus average body weight on day 1 at the dose of 800 mg/kg in experiment 3

Compound `NC(=O)c1csc([C@@H]2O[C@H](CO)[C@@H](O)[C@H]2O)n1` [TIAZOFURIN] has a Weight change [1] of 1.3 g, a Median life span [2] of 20 days and a Median life span [3] of 7 days. For the same compound, the Survivors [4] was 10, the Weight change [5] was 0.5 g and the Weight change [6] was 1.3 g. It also gave a Weight change [7] of 1.6 g, a Weight change [8] of 1.7 g and a Survivors [9] of 0. The Median life span [10] was 8.5 days, the Weight change [11] was 2.3 g and the Survivors [12] was 6. The Survivors [13] was 9, the Survivors [14] was 10 and the Weight change [15] was 1.1 g. It also gave a Survivors [16] of 9, a Median life span [17] of 39.5 days and a Survivors [18] of 0. The Weight change [19] was 1.2 g, the Weight change [20] was 1.3 g and the Survivors [21] was 10. The Median life span [22] was 22.8 days, the Survivors [23] was 9 and the Median life span [24] was 46 days. For the same compound, the Survivors [25] was 10, the Median life span [26] was 11.3 days and the Weight change [27] was 0.4 g. It also gave a Survivors [28] of 9, a Median life span [29] of 55 days and a Weight change [30] of 2 g. The Survivors [31] was 7, the Median life span [32] was 17 days and the Median life span [33] was 11.3 days. For the same compound, the Survivors [34] was 10, the Survivors [35] was 9 and the Weight change [36] was 1.3 g. The Median life span [37] was 47 days, the Median life span [38] was 47 days and the Weight change [39] was 0.7 g. For the same compound, the Survivors [40] was 7, the Weight change [41] was 1.2 g and the Weight change [42] was 1.9 g. For the same compound, the Weight change [43] was 1.8 g, the Survivors [44] was 8 and the Weight change [45] was 1.2 g. The Weight change [46] was 0.7 g, the Weight change [47] was 1.5 g and the Survivors [48] was 0. For the same compound, the Weight change [49] was 1 g, the Median life span [50] was 9.5 days and the Weight change [51] was -2.1 g. For the same compound, the Weight change [52] was 2.2 g, the Survivors [53] was 0 and the Weight change [54] was 0.9 g. For the same compound, the Survivors [55] was 6, the Survivors [56] was 10 and the Survivors [57] was 0. The Survivors [58] was 7, the Survivors [59] was 1 and the Median life span [60] was 16 days. For the same compound, the Survivors [61] was 10, the Median life span [62] was 23 days and the Median life span [63] was 20 days. It also gave a Median life span [64] of 25.3 days and a Weight change [65] of -0.8 g.
